This passage reports inhibition and urethra internal pressure results from patent publication US9636330B2, “Tetrahydrocarboline derivative” (ONO PHARMACEUTICAL CO., LTD., priority 2010, dated 2017).

For one test, the target named is human ENPP2 (Homo sapiens (Human), UniProt Q13822). Kind of test: Measurement of Human ENPP2 Inhibitory Activity. It counts as biochemical. The settings on record: 1 μM test compound; 16:0-LPC substrate, choline production; read-out: ENPP2 inhibition rate(%) (1 μM). As for the experimental part:
10 μL of a test compound solution (10% dimethyl sulfoxide) at each concentration and 40 μL of a 5 μg/mL human ENPP2 solution (buffer A: 100 mmol/L Tris-HCl (pH 9.0), 500 mmol/L NaCl, 5 mmol/L MgCl2, 0.05% Triton X-100) were mixed, 50 μL of a 2 mmol/L 16:0-lysophosphatidylcholine (LPC) solution (buffer A) was further added to react at 37° C. for 24 hours. Subsequently, to 10 μL of the reaction solution was added 90 μL of a measurement buffer (0.5 mmol/L aminoantipyrine, 0.3 mmol/L N-ethyl-N-(2-hydroxy-3-sulfopropyl)-3-methylaniline, 1 U/mL peroxidase, 3 U/mL choline oxidase, 100 mmol/L Tris-HCl (pH 8.5), 5 mmol/L CaCl2) to react at 37° C. for 20 minutes, and spectrophotometric determination was performed at 555 nm.
Using a standard curve, a choline production amount (enzyme activity) in each test compound was calculated, and the inhibitory activity rate of each test compound was calculated, wherein the enzyme activity in a positive control to which a test compound is not added, was a 0% inhibition rate, and the enzyme activity in a negative control to which a test compound and human ENPP2 are not added, were 100% inhibition. Further, concerning the present compounds shown in Table 3, an IC50 value was calculated from inhibitory activity rate at each concentration.

Test [1] has as its system urethra internal pressure of a rat. The experiment in a line: Measurement of Urethra Internal Pressure in Rat Under Anesthesia. It counts as in vivo. As to conditions: SD male rat under urethane anesthesia, intravenous. The source says: A SD male rat (Crl: CD(SD), Charles River Laboratories Japan, Inc., 7-10 weeks old) was anesthetized by subcutaneous administration of 1.5 g/kg urethane at a back of a neck. After neck median incision, a jugular vein catheter for intravenous administration was inserted. A lower abdominal part was median incised, and a urethra was ligated at around pubis. A urethral catheter for measuring a urethra internal pressure, equipped with a collar at a tip and filled with a physiological saline was inserted into a urethra through an incised bladder top, and ligation-fixed at a bladder neck part. The urethral catheter was connected to a pressure transducer (manufactured by Nihon Kohden Corporation), and a urethra internal pressure was measured. […] A urethra internal pressure reduction rate (%) was calculated based on a urethra internal pressure after compound administration, wherein a value obtained by subtracting a postmortem baseline value (minimum value of urethra internal pressure for 10 minutes after administration of somnopentyl) from a urethra internal pressure value before compound administration (0 minute) was 100%.

As for `O=C(CC12CCC(C(=O)O)(CC1)CC2)N1CCc2c(n(Cc3ccc(Cl)cc3F)c3ncccc23)C1` [Example 31(142), 4-{2-[9-(4-chloro-2-fluorobenzyl)-5,6,8,9-tetrahydro-7H-pyrido[4′,3′:4,5]pyrrolo[2,3-b]pyridin-7-yl]-2-oxoethyl}bicyclo[2.2.2]octane-1-carboxylic acid], the inhibition – broadly, the relative decrease from the control value, in per cent – at 1 µM at human ENPP2 stood at 98.6%.

`O=C(C[C@H]1CC[C@H](C(=O)O)CC1)N1CCc2c(n(Cc3ccc(Cl)cc3F)c3ncccc23)C1` [Example 31(24), trans-4-{2-[9-(4-chloro-2-fluorobenzyl)-5,6,8,9-tetrahydro-7H-pyrido[4′,3′:4,5]pyrrolo[2,3-b]pyridin-7-yl]-2-oxoethyl}cyclohexanecarboxylic acid]: the urethra internal pressure result in test [1] (dose 0.03, 0.1, 0.3 mg/kg, FIG. 2) is “significantly reduced a urethra internal pressure”.

As to `O=C(O)CCCCC(=O)N1CCc2c(n(CCCc3ccccc3)c3ccccc23)C1` [Example 3, 6-oxo-6-[9-(3-phenylpropyl)-1,3,4,9-tetrahydro-2H-beta-carbolin-2-yl]hexanoic acid], in test [1] (dose 0.1, 0.3, 1.0 mg/kg, FIG. 1), the urethra internal pressure result is listed as “significantly reduced a urethra internal pressure”.
